# Tests used:
# gastric mucous membrane = test: Effect on gastric mucous membrane (irritation); type: in vivo, rats
# Method: […] After 4 hours its effect on irritation of gastric mucous membrane was measured in a way that the rate of bleeding in stomach and frequency of ulcers was determined.
# [1] = cited from earlier work
# mice of Han-NMRI strain = test: in vivo; details: for comparative toxicity (in words): peroral, mice and rats
# Method: (§1) In the test mice of Han-NMRI strain of both sexes, weight 19 to 24 g, and female rats of Han-WISTAR strain, weight 220 to 250 g, were used. The active substance was suspended in arachis oil and applied perorally. The volume of the applied suspension was 0.2 ml/20 g body weight in mice and 0.2 ml/200 g body weight in rats. Before the test the animals were fasted for 24 hours and after application, water and food were available ad libitum.
# in vivo = details: po
# Method: as §1
# [2] = in vivo; cited from earlier work
# [3] = cited from earlier work; remark: listed apart in the source
# [4] = irrespective of application route; cited from earlier work
# [5] = system: convulsions caused by phenylbenzoquinone; test: Alleviation of pain (phenylbenzoquinone-induced convulsions); type: in vivo, female mice; details: Mus musculus, po, read-out: ED50 (50% pain protection); 95% confidence limit; peroral, 30 minutes before intraperitoneal phenylbenzoquinone
# Method: The effect of alleviating pain was tested with the number of convulsions caused by phenylbenzoquinone. Female mice, weight 15 to 22 g, were fasted before the test for 24 hours and after the application water and food were ad libitum. 30 minutes after peroral introduction of the suspension of active substance in 10% gum arabic solution, individual mice were intraperitoneally administered 0.25 ml of 0.02% phenylbenzoquinone solution. Only the vehicle was applied to a control group of animals. The number of phenylbenzoquinone-induced convulsions was pursued 5 to 20 minutes after the application thereof.
# ED50 calculated dosis of the active substance in mg per 1 kg of the
# animal, which dosis caused a 50% pain protection
# [6] = system: oedema caused by carrageenin; test: Antiinflammatory action in vivo (carrageenin oedema); parameters: species or system rats
# Method: Antiinflammatory action was measured in vivo by the inhibition of oedema caused by carrageenin.
# Rats, which were fasted overnight, were given 100 mg/kg of the test substance 1 hour before the injection of 0.1 ml 1% carrageenin suspension.
# [7] = mouse, in vivo, 2000 mg/kg, % of deaths after 15 days, female mice, 2000 mg/kg peroral
# [8] = mouse, in vivo, 2000 mg/kg, % of deaths after 15 days, male mice, 2000 mg/kg peroral
# [9] = mouse, in vivo, 2000 mg/kg, % of deaths in 24 h, female mice, 2000 mg/kg peroral
# [10] = mouse, in vivo, 2000 mg/kg, % of deaths in 24 h, male mice, 2000 mg/kg peroral
compound,measurement,setting,value
CC(C)Cc1ccc([C@H](C)C(=O)O)cc1 [S-(+)-ibuprofen],irritation of gastric mucous membrane,"gastric mucous membrane; rat, in vivo, 30 mg/kg",12
same,pharmacological activity (in words),[1]; in vivo,pharmacologically active
same,comparative toxicity (in words),mice of Han-NMRI strain,acute toxicity of S-(+)-ibuprofen in all test animals is greater than acute toxicity of S-(+)-ibuproxam
same,mortality at 360 h,"in vivo; mouse, in vivo, 1000 mg/kg, % of deaths after 15 days, female mice, 1000 mg/kg peroral",10%
same,mortality at 24 h,"in vivo; mouse, in vivo, 1000 mg/kg, % of deaths in 24 h, female mice, 1000 mg/kg peroral",10%
same,mortality at 360 h,in vivo; [7],10%
same,mortality at 360 h,in vivo; [8],30%
same,mortality at 24 h,in vivo; [9],10%
same,mortality at 24 h,in vivo; [10],0%
same,mortality at 48 h,"in vivo; mouse, in vivo, 2000 mg/kg, animals died in 48 hours, male mice, 2000 mg/kg peroral",30%
same,LD50,in vivo; rat,< 1000 mg/kg
same,mortality at 24 h,"in vivo; rat, 1000 mg/kg",0%
same,mortality at 144 h,"in vivo; rat, 1000 mg/kg",83.3%
same,mortality at 360 h,"in vivo; rat, 1000 mg/kg",83.3%
"CC(C)Cc1ccc(C(C)C(=O)NO)cc1 (racemic) [racemic ibuproxam, 2-(4-isobutylphenyl)-propiohydroxamic acid]","analgetic, antipyretic and antiinflammatory action (in words)",[2],"same analgetic, antipyretic and antiinflammatory action of both substances"
same,bioavailability in comparison with ibuprofen (in words),[2],better bioavailability of ibuproxam in comparison with ibuprofen
same,toxicity for the mucous membrane of the alimentary tract (in words),[2],less toxic for the mucous membrane of the alimentary tract
same,LD50 comparison at parenteral application,[3],the same for both substances
same,metabolic conversion into ibuprofen (in words),[4],rapid and almost complete metabolic conversion into ibuprofen
CC(C)Cc1ccc([C@@H](C)C(=O)O)cc1 [R-(-)-enantiomer],conversion to S-(+)-enantiomer in humans,[1]; humans,"only one third thereof, is converted to S-(+)-enantiomer"
"CC(C)Cc1ccc([C@H](C)C(=O)NO)cc1 [S-(+)-ibuproxam, S-(+)-2-(4-isobutylphenyl)-propiohydroxamic acid]",irritation of gastric mucous membrane,"gastric mucous membrane; dose 30 mg/kg peroral, rate of bleeding and frequency of ulcers after 4 hours",0
same,irritating effect on gastric mucous membrane (in words),"gastric mucous membrane; rat, in vivo",did not exhibit an irritating effect on gastric mucous membrane
same,ED50,[5],73 mg/kg
same,antiinflammatory action,"[6]; 100 mg/kg peroral, 1 hour before carrageenin, oedema inhibition 3 hours after carrageenin",37
same,comparative antiinflammatory action (in words),"[6]; rat, in vivo",greater antiinflammatory action than free racemic ibuproxam
same,animals died (in words),"mice of Han-NMRI strain; female mice, 1000 mg/kg or 2000 mg/kg peroral, 15 days",no animal died
same,animals died (in words),"mice of Han-NMRI strain; male mice, 2000 mg/kg peroral",no animal died
same,animals died in 15 days (in words),"mice of Han-NMRI strain; mice of both sexes, 2000 mg/kg peroral",no animal died in 15 days
same,comparative toxicity (in words),mice of Han-NMRI strain,less toxic than S-(+)-ibuprofen
same,mortality at 360 h,in vivo; [7],0%
same,mortality at 360 h,in vivo; [8],0%
same,mortality at 24 h,in vivo; [9],0%
same,mortality at 24 h,in vivo; [10],0%
same,mortality at 24 h,"in vivo; rat, 1000 mg/kg",0%
same,mortality at 360 h,"in vivo; rat, 1000 mg/kg",50%
same,mortality at 360 h,"in vivo; rat, 2000 mg/kg",50%
"CC(C)Cc1ccc(C(C)C(=O)O)cc1 (centres unmarked) [ibuprofen, 2-(4-isobutylphenyl)-propionic acid]","analgetic, antipyretic and antiinflammatory action (in words)",[2],"same analgetic, antipyretic and antiinflammatory action of both substances"
same,LD50 comparison at parenteral application,[3],the same for both substances

# From patent publication US5840714A, “Inclusion complexes of racemic ibuproxam and of optically active ibuproxam with cyclodextrin derivatives, pharmaceutical preparations containing said inclusion complexes and methods for using same” (priority 1993, dated 1998)
